US10426815B2, “Prevention and treatment of itch with an MRGPR antagonist” (THE GENERAL HOSPITAL CORPORATION, priority 2015, dated 2019)
Entries after “also recorded” stand apart in the source; their conditions may differ.

Tests used:
Assay type in all cases: cell-based
MrgC11 (mouse MrgprC11) = target: T1, MrgC11 (mouse MrgprC11) (Mus musculus, UniProt Q8CIP3); experiment: Calcium imaging of cells transfected with the GPCR (Table 1); details: capsaicin 3 μM
T1 construct: expressed in transfected cells; host or cells: HeLa cells
T1 sequence (Q8CIP3 1-322): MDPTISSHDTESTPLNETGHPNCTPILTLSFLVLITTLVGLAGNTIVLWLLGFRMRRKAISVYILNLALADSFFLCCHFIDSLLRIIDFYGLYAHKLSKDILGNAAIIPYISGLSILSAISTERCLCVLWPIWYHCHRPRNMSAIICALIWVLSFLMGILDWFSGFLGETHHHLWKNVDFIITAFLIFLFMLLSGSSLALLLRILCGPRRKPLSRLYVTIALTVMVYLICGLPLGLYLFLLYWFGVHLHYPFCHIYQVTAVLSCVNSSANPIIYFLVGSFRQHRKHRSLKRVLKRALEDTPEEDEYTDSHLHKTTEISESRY

NK1R (NK1) = target: T2, NK1R (NK1) (Homo sapiens, UniProt P25103); experiment: as above; details: FIG. 6a: SP 5 nM, inhibitors 1 μM
T2 construct: host or cells: HeLa cells, pcDNA3.1(-)
Protocol: Human NK1 cDNA was obtained from LIFE Technologies, PCR cloned with Xho I-Hind III ends and cloned into pcDNA3.1(−). Mouse NK2 and NK3 expression-ready vectors were obtained from […] (Piscataway, N.J.). All other Mrgprs (human MRGPRX1, human MRGPRX2, human MRGPRX3, human MRGPRX4, mouse MrgprA2a, mouse MrgprA2b, mouse MrgprA3, mouse MrgprA4, mouse MrgprA9, mouse MrgprA10, mouse MrgprB4 and mouse MrgprB5) were cloned by PCR from genomic DNAs and inserted into pcDNA3.1 (−).
10 μg of expression vector (human MRGPRX2, mouse MrgprA1 or NK1) and 10 μl of LIPOFECTAMINE 2000 transfection reagent were diluted into 0.5 ml of DMEM and separately left at room temperature (RT) for 5 min. They were then mixed and incubated at RT for 20 minutes prior to being added to HeLa cells. HeLa cells were grown to confluence, trypsinized and 1×10^6 cells were pelleted in a 15 ml tube by centrifugation at 1000 rpm for 5 minutes. […]
Calcium imaging was performed immediately after loading cells with Fura-2, using a ZEISS Axiovert 200M microscope platform equipped with a flipping filter wheel for ratiometric imaging. […] The software later analyzed all images taken during each excitation period. Ratiometric changes were measured in 10-20 cells in each individual experiment. An average of the fluorescence of the cells in each image was calculated and plotted against time in seconds.

hMRGPRX2 = target: T3, hMRGPRX2 (Homo sapiens, UniProt Q96LB1); experiment: Concentration-effect curves of substance P versus QWF, stable HEK-293 cell line; details: stable HEK-293 clone; experiment done once, triplicate points
T3 construct: expressed in transfected cells
T3 sequence (Q96LB1 1-330): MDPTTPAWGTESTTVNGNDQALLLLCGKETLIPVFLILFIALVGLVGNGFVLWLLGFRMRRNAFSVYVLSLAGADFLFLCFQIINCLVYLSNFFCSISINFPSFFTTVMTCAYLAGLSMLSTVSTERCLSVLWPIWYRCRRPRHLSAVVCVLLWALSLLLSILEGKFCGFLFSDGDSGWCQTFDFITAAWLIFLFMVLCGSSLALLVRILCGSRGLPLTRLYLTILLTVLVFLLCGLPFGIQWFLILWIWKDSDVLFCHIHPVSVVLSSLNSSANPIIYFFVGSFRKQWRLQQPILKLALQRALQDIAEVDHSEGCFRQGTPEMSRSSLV
Description: Concentration-effect curves with substance P versus the indicated concentrations of QWF on a stable HEK-293 cell line expressing hMRGPRX2. HEK293 cells were transfected with a pcDNA3.1(−) vector containing MRGPRX2 cDNA and clones resistant to […] (G418) were selected. The data were generated from one of those clones. The experiment was done once with each data point done in triplicate. Error bars represent+/−SEM.

T2 sequence (P25103 whole entry): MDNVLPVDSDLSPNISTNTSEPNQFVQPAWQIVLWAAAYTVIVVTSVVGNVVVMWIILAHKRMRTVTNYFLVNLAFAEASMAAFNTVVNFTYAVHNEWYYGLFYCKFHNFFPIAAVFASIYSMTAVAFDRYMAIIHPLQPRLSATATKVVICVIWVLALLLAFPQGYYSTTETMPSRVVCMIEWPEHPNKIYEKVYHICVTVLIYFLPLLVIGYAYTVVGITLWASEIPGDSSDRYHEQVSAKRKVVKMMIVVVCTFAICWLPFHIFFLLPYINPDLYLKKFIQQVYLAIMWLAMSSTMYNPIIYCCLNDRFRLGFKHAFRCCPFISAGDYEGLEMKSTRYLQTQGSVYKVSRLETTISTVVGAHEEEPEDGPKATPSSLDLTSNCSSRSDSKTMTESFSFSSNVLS

Substance | activation of mouse MrgprC11 by the substance (in words) (MrgC11 (mouse MrgprC11)) | inhibition of NK1 (activation by SP) (NK1R (NK1)) | mode of QWF antagonism of substance P at hMRGPRX2 (hMRGPRX2)
SLIGRL: tethered hexapeptide ligand of mouse PAR2 (SEQ ID NO: 7) | activates | – | –
Boc-Gln-D-Trp(Formyl)-Phe benzyl ester trifluoroacetate [QWF] | – | inhibit; also recorded: blocks | competitive antagonist
